Laboratory results reported in patent US20260183274A1, “PDK1 REGULATORY COMPOUND AND COMPOSITION CONTAINING THE SAME” (PROVIBIO CO., LTD., priority 2024, published 2026).

Tests used:
MRL/lpr mice = assay: Lupus animal model (MRL/lpr mice); type: in vivo, mouse; settings: for Hair growth on the facial region: 41-week-old female MRL/lpr, GO15F 30 mg/kg, GO48 1 mg/kg, GO88 0.5 mg/kg i.p. once daily, FIG. 24
From the text: The MRL/MpJ-Faslpr/J (Hereinafter Referred to as “MRL/lpr”) used in this experiment is one of the representative animal models for systemic lupus erythematosus (SLE), known to produce various autoantibodies, including antinuclear antibodies, due to the lpr (lymphoproliferation) gene.
In this invention, the period up to 9 weeks of age was considered the pre-disease stage, and the period after 23 weeks of age was considered the post-disease stage, and efficacy verification experiments using this model were conducted.
MRL/lpr mice were imported from The Jackson Laboratory and acclimatized for one week in an SPF (Specific Pathogen Free) facility maintained at a temperature of 21-24° C., humidity of 40-60%, and a 12-hour light-dark cycle (lights on at 7:00 AM, lights off at 7:00 PM).
Subsequently, female and male MRL/lpr mice were mated at a ratio of 2:1 in the same facility, and the female offspring were administered the compound GO15F of the present invention or vehicle at a dose of 30 mg/kg […]
Urine samples were collected once a week from each individual and used for analytical experiments. […]
The protein concentration in urine collected weekly from the control group or experimental group was analyzed using ‘Quick Start™ Bradford 1× Dye Reagent (Bio-Rad, Cat. #5000205).’
In each well of a 96-well plate, 5 μl of urine sample diluted with triple-distilled water and 250 μl of 1× dye reagent were added, reacted, and the absorbance was measured at 595 nm. […]
Each kidney tissue was used to isolate total RNA using TRIzol™ (Invitrozen, Cat. #15596018). RNA from each mouse was quantified at 1 μg using a micro-quantitative spectrophotometer (ThermoFisher Scientific, ND2000) and cDNA was synthesized.
The synthesized cDNA from each mouse was quantified to a concentration of 50 ng using a micro-quantitative spectrophotometer, and qPCR was performed for the cytokines ‘IL-2, IL-6, IL-10, IL-17, TNF-α, IFN-γ’ using a SYBR green probe (CFX96, BIO-RAD).
To investigate the effects of drug administration on renal tissue in MRL/lpr mice, the tissue was fixed in 10% neutral buffered formalin at room temperature, followed by stepwise ethanol penetration for dehydration. The tissue was then embedded in xylene and paraffin.
The blocked tissues were sectioned into 4 μm thick slices using a microtome, followed by deparaffinization, hydration, and staining.
Hematoxylin & Eosin staining, PAS staining, and Masson trichrome staining were performed for pathological evaluation of the tissues.
To determine the extent of IgG deposition in kidney tissue of MRL/lpr mice, immunofluorescence staining was performed using anti-IgG antibodies on paraffin-embedded kidney tissue sections, and the staining results were examined using a fluorescence microscope.
Additionally, in 41-week-old female MRL/lpr mice, the compounds GO15F (30 mg/kg), GO48 (1 mg/kg), and GO88 (0.5 mg/kg) were administered intraperitoneally once daily.
To confirm the proliferative activity of hair follicle cells in the skin tissue of these mice, the mice were sacrificed 14 days after administration of the compounds of the present invention, and Ki-67 immunohistochemistry (IHC) was performed.
For this purpose, the excised skin tissue was fixed in formalin, embedded in paraffin blocks, and stained with a Ki-67-specific antibody on tissue sections prepared as slides.

[1] = system: BALB/c mice with induced psoriasis; assay: Psoriasis animal model (Aldara cream, Imiquimod); type: in vivo, mouse
Experimental: To verify the therapeutic effect of the compound according to the present invention on psoriasis, a psoriasis animal model was established as follows, and the compound according to the present invention was administered to evaluate the alleviation of skin lesions and changes in immune cell patterns.
For the establishment of the psoriasis animal model, BALB/c mice (7 weeks old, female, 20 g) were purchased from HanabioTech Co., Ltd. and acclimatized to the rearing environment for one week.
Subsequently, the hair on the mouse back was shaved using a hair removal device for the first time, and then completely shaved using a depilatory cream (Nicrin Cream (80% thioglycolic acid, Il Dong Pharmaceutical)) for the second time. The mice were then kept for 24 hours to confirm the absence of skin damage.
[Normal control group (Normal, Not Treatment), psoriasis-induced control group (Psoriasis, Not Treatment), psoriasis-induced vehicle control group (Psoriasis, Vehicle), experimental group (GO85, GO86, GO88, GO89, PBK-2024-010, PBK-2024-026, PBK-2025-002, PBK-2025-004, PBK-2025-016, PBK-2025-017, PBK-2025-023)]. […]
Body weights of mice in each group were measured on days 1, 4, and 8 after the start of injection and psoriasis induction. […]
To evaluate the therapeutic effect in a psoriasis-induced mouse model, the PASI (Psoriasis Area and Severity Index) score was measured.
The PASI score is based on three criteria: erythema, scaling, and skin thickness, each scored from 0 (none) to 4 (severe). […]
Observations were conducted daily at the same time, and the same observer visually assessed each criterion and recorded the scores, with the results presented in FIG. 13. […]
All samples were measured in duplicate, and the absorbance was measured at 450 nm using a microplate reader.

Row | SMILES | Hair growth on the facial region (MRL/lpr mice) | Efficacy in improving dermatological symptoms [1] | further results
1 | Nc1ncccc1C(=O)NCCCCCCCCCCCCF [Compound 57, 2-Amino-N-(12-fluoro-dodecyl)-nicotinamide] | hair growth was confirmed |  | Protein concentration in urine (proteinuria) (MRL/lpr mice; 30 mg/kg once daily, vs control MRL/lpr, FIG. 16): significantly lower than that in the control group; B cells, T cells and macrophages in spleen (flow cytometry) (MRL/lpr mice; FIG. 19): reduced the increased B cells, T cells, and macrophages; IgG deposition in kidney tissue (immunofluorescence) (MRL/lpr mice; FIG. 22): significantly lower; Renal pathological tissue staining (glomerular capillary loops) (MRL/lpr mice; H&E, PAS, Masson trichrome, FIG. 21): the glomerular capillary loops were well maintained; Concentration of anti-dsDNA IgG in blood (MRL/lpr mice; serum at necropsy (23 weeks), vs control MRL/lpr, FIG. 17): significantly lower; Total IgG concentration in blood (MRL/lpr mice; serum at necropsy, vs control MRL/lpr, FIG. 18): significantly lower
2 | CC1(C)CN(CCCCCCCCCCCCC(=O)Nc2nc(N)c3[nH]cnc3n2)CCO1 [Compound 11, 12-[4-(2,2-dimethylmorpholin-4-yl)]dodecyl-N-(6-aminopurine-2-yl) carboxamide] |  | excellent efficacy in improving dermatological symptoms | 
3 | Nc1ncccc1C(=O)NCCCCCCCCCCCCN1CCNCC1 [Compound 14, 2-Amino-N-(12-(piperazin-1-yl)dodecyl)nicotinamide] | hair growth was confirmed | excellent efficacy in improving dermatological symptoms | 
4 | Nc1nc(NC(=O)CCCCCCCCCCCCN2CCN(CCO)CC2)nc2nc[nH]c12 [Compound 15, 12-[4-(2-hydroxyethyl)piperazin-1-yl]dodecyl-N-(6-aminopurine-2-yl) carboxamide] |  | excellent efficacy in improving dermatological symptoms | 
5 | Nc1ncccc1C(=O)NCCCCCCCCCCCCN1CCOCC1 [Compound 2, 2-Amino-N-(12-morpholin-4-yl-dodecyl)-nicotinamide] | hair growth was confirmed |  | 
